Data taken from the NIST ThermoML archive (doi:10.1021/je0496995).

Experiments:
[1] = Liquid; for viscosity: 101.3 kPa, Capillary tube (Ostwald / Ubbelohde) method; for mass density: 101.33 kPa, Pycnometric method
[2] = wn = mass fraction of the nth substance listed; conditions: 101.3 kPa, Liquid; for viscosity: Capillary tube (Ostwald / Ubbelohde) method; for mass density: Pycnometric method
[3] = mn = molality of the nth substance listed, in mol/kg; conditions: Liquid, m2 = 0; for viscosity: 101.3 kPa, Capillary tube (Ostwald / Ubbelohde) method; for mass density: 101.33 kPa, Pycnometric method

Cc1cccnc1 [3-methylpyridine]
[1]
Conditions	mass density [kg/m3]	viscosity [mPa·s]
293.15 K	956	0.9459
303.15 K	946.6	0.8318
313.15 K	937.7	0.7352
323.15 K	928.3	0.6565
333.15 K	919.3	0.5936
343.15 K	910.3	0.539

Cc1cccnc1 [3-methylpyridine] + O
[2]
Conditions	mass density, w1 = 0.1 [kg/m3]	mass density, w1 = 0.15 [kg/m3]	viscosity, w2 = 0.1 [mPa·s]	viscosity, w2 = 0.15 [mPa·s]
293.15 K	997.8	997.5	1.291	1.448
303.15 K	994.4	993.7	1.002	1.143
313.15 K	990.2	989.2	0.8117	0.9152
323.15 K	985.2	983.7	0.6796	0.7673
333.15 K	979.6	977.7	0.5794	0.6568
343.15 K	973.7	971.7	0.5053	0.5712

Cc1cccnc1 [3-methylpyridine] + O=C(O)c1cccnc1
[3]
Conditions	mass density [kg/m3]	viscosity [mPa·s]
293.15 K	956	0.9459
303.15 K	946.6	0.8318
313.15 K	937.7	0.7352
323.15 K	928.3	0.6565
333.15 K	919.3	0.5936
343.15 K	910.3	0.539
